The source of these data is article PMC2365101, “Anti-Inflammatory Activity of (Polyphenolic)-Sulfonates and Their Sodium Salts in Rodents” (Metal-Based Drugs, 1998).

Assay [1] has as its system CF1 male mice, carrageenan induced edema. As to the kind of experiment: Anti-inflammatory screen in mice (carrageenan induced foot edema). It is filed as in vivo. The conditions noted are these: for reduction of edema: 16 mg/kg X 2. An excerpt: Few reports in the literature indicate interaction at these receptor sites other than by peptides or antibodies. […] Blocking these receptors is desirable because the entire inflammation cascade of events is triggered by the early release of TNFa and IL-1. […] Radioisotopes were obtained from New England Nuclear [Dupont, Boston, MA] and substrates and co- factors were obtained from Sigma Chemical Co. [St. Louis, MO]. […] Cell lines were obtained from American Type Culture Collection [Rockville, MD]. In Vivo Tests Anti-inflammatory screen in mice: Male CF male mice weighing 28-32g obtained from Jackson Lab. […] Evaluation of the induced edema was made by injecting 2% carrageenan in 0.9% saline into the plantar region of the foot. The opposite foot injected with 0.9% isotonic saline was used as a base line. […] Salmonella abortus equi [Lot # 69F4003] […] Drugs from 2 to 16 mg/kg, I.P. were administered 2 hr prior and 2 hr post-injection of the LPS and then subsequently for every 24 hr for the length ofthe animals' lives. Deaths were recorded every 12 hr and continued for 96 hr. […] In vitro TNFa andIL-1 Measurements and Cellular Regulation IC-21 mouse macrophages were maintained in RPMI-1640 + 10% FCS + P/S. After the cells had grown to confluency, E. coli LPS at 10 Ixg/ml was added to the medium. Agents were incubated at 12.5 to 100 µM final concentration for 18 hr. The medium (100 btl) was collected for TNFCt determinations. Interleukin-1 [IL-1] release was determined using P388D1 cells which were maintained in RPMI-1640 + 10% FCS + P/S. The L929 bioassay was used to quantitate the TNF and the IL-1 levels. The L929 mouse fibroblasts were grown in DMEM + 10% FCS + P/S to confluency in 96 well plates and incubated with 100 tl ofmedium from […] or P388D cells after 18 hr. The cells were stained with 0.2% crystal violet in 20% MeOH and read at 580 nm using a Molecular Devices scanner (SOFT-max program). High Affinity Binding to Receptors on L929-106 Cells Two laCi of 125I-TNFct (human recombinant, 30 mCi/tg New England Nuclear) or 125I-IL-1 (70-120[.t Ci/lxg,New England Nuclear) was added to confluency L929 cells for 90 min or 5 hr, respectively with 25, 50 and 100 tM of the test compounds 12]. The cells were washed repeatedly with isotonic saline, pH.7.2 and aliquots counted. Prostaglandin cylcooxygenase activity Mouse J774AI macrophages maintained in Dulbecco's modified Eagle's medium + 15% FCS + P/S. Cells (5 x 106) were incubated with agents (5 to 100 ].tM final concentration) and 3H-arachidonic acid (100 Ci/mol) for 60 min at 37C in a CO2 incubator. The reaction was terminated with 2N HCI, the mixture extracted 2 X with ether, and the organic layer evaporated.

For assay [2], the system named is CF1 male mice, LPS Salmonella abortus equi induced death. The assay can be described thus: Protection against septic shock (LPS induced endotoxic shock). In kind it is in vivo. The conditions noted are these: for Percent Survival at 52 hr: LPS 10 mg/kg, CF1 male mice, N=6. The text has this: (§1) Few reports in the literature indicate interaction at these receptor sites other than by peptides or antibodies. […] Blocking these receptors is desirable because the entire inflammation cascade of events is triggered by the early release of TNFa and IL-1. […] Radioisotopes were obtained from New England Nuclear [Dupont, Boston, MA] and substrates and co- factors were obtained from Sigma Chemical Co. [St. Louis, MO]. […] Cell lines were obtained from American Type Culture Collection [Rockville, MD]. In Vivo Tests Anti-inflammatory screen in mice: Male CF male mice weighing 28-32g obtained from Jackson Lab. [Bar Harbor, […]] were used to screen agents at 8 or 16 mg/kg intraperitoneal [I.P.] x 2 administered 3 hr and 30 min prior to administering the irritant, according to Winter's protocol. Evaluation of the induced edema was made by injecting 2% carrageenan in 0.9% saline into the plantar region of the foot. The opposite foot injected with 0.9% isotonic saline was used as a base line. […] Salmonella abortus equi [Lot # 69F4003] […] Drugs from 2 to 16 mg/kg, I.P. were administered 2 hr prior and 2 hr post-injection of the LPS and then subsequently for every 24 hr for the length ofthe animals' lives. Deaths were recorded every 12 hr and continued for 96 hr. […] In vitro TNFa andIL-1 Measurements and Cellular Regulation IC-21 mouse macrophages were maintained in RPMI-1640 + 10% FCS + P/S. After the cells had grown to confluency, E. coli LPS at 10 Ixg/ml was added to the medium. Agents were incubated at 12.5 to 100 µM final concentration for 18 hr. The medium (100 btl) was collected for TNFCt determinations. Interleukin-1 [IL-1] release was determined using P388D1 cells which were maintained in RPMI-1640 + 10% FCS + P/S. The L929 bioassay was used to quantitate the TNF and the IL-1 levels. The L929 mouse fibroblasts were grown in DMEM + 10% FCS + P/S to confluency in 96 well plates and incubated with 100 tl ofmedium from […] or P388D cells after 18 hr. The cells were stained with 0.2% crystal violet in 20% MeOH and read at 580 nm using a Molecular Devices scanner (SOFT-max program). High Affinity Binding to Receptors on L929-106 Cells Two laCi of 125I-TNFct (human recombinant, 30 mCi/tg New England Nuclear) or 125I-IL-1 (70-120[.t Ci/lxg,New England Nuclear) was added to confluency L929 cells for 90 min or 5 hr, respectively with 25, 50 and 100 tM of the test compounds 12]. The cells were washed repeatedly with isotonic saline, pH.7.2 and aliquots counted. Prostaglandin cylcooxygenase activity Mouse J774AI macrophages maintained in Dulbecco's modified Eagle's medium + 15% FCS + P/S. Cells (5 x 106) were incubated with agents (5 to 100 ].tM final concentration) and 3H-arachidonic acid (100 Ci/mol) for 60 min at 37C in a CO2 incubator. The reaction was terminated with 2N HCI, the mixture extracted 2 X with ether, and the organic layer evaporated.

Assay [3] deals with cytokine synthesis and release. The conditions noted are these: tissue culture; no reference given; read-out: IC50 to block cytokine synthesis and release; cited from earlier work.
For assay [4], the target named is J774-A1 prostaglandin cyclooxygenase. The assay can be described thus: Prostaglandin cyclooxygenase activity in J774-A1 macrophages. It is filed as cell-based, mouse. As to conditions: 60 min; read-out: IC50 Cyclo-oxygenase J774-A1.
Excerpt: as §1

Assay [5] deals with J774-A1 macrophage elastase. The assay can be described thus: Elastase activity in J774-A1 macrophages. It is filed as biochemical, mouse.
For assay [6], the target named is IC-21 macrophage elastase. The assay can be described thus: Elastase activity in IC-21 macrophages. In kind it is biochemical, mouse.
The subject of assay [7] is CF1 male mice, LPS Salmonella abortus equi induced death. As to the kind of experiment: Protection against septic shock (LPS induced endotoxic shock). In kind it is in vivo.
In assay [8] the target is human leukocyte elastase (RPMI 1788). The assay can be described thus: Elastase activity in human leukocytes RPMI 1788. In kind it is biochemical.
Where [9] appears, read: 16 mg/Kg X 2, I.P., CF1 male mice, N=6.
[10] abbreviates: 8 mg/Kg X 2, I.P., CF1 male mice, N=6.

Take `CCCCC1C(=O)N(c2ccccc2)N(c2ccccc2)C1=O` [Phenylbutazone, phenylbutazone, reference compound]: in assay [1] (50 mg/kg X 2), the “reduction in edema” value worked out at 47%.

On to `C[C@@H]1C[C@H]2[C@@H]3CCC4=CC(=O)C=C[C@]4(C)[C@@]3(F)[C@@H](O)C[C@]2(C)[C@@]1(O)C(=O)CO` [dexamethasone, reference compound], for which the “protection from LPS induced death” value in assay [2] (dexamethasone dose printed 'at mg/kg' (methods: 1 mg/kg)) came out at 67%.

Consider `C[C@]12CCC(=O)C=C1CC[C@@H]1[C@@H]2[C@@H](O)C[C@@]2(C)[C@H]1CC[C@]2(O)C(=O)CO` [hydrocortisone], for which the IC50 (commonly the concentration needed to halve the response being measured) in assay [3] is 10 µM.

Take `COc1c2cc(S(=O)(=O)[O-])cc1Cc1cc(S(=O)(=O)[O-])cc(c1OC)Cc1cc(S(=O)(=O)[O-])cc(c1OC)Cc1cc(S(=O)(=O)[O-])cc(c1OC)C2.[Na+].[Na+].[Na+].[Na+]` [Compound 5]: the IC50 in assay [4] came out at 65.1 µM; in assay [6] (120 min), 111 µM. Moreover, the “Percent of Control (induced edema)” value in assay [1] (setting [9]) was 61 +5% of Control. The results for the “Percent Survival at 52 hr” value in assay [2] (8 mg/Kg I.P.) and in assay [2] (16 mg/Kg I.P.) were 33% and 67%, respectively. For the same compound, the “protection from LPS induced death” value in assay [2] (16 mg/kg) is recorded as 67%. For the same compound, the “IC50 Elastase J774-A1” value in assay [5] (120 min) is reported as “Increased”.

With `CC(=O)CCCCn1c(=O)c2c(ncn2C)n(C)c1=O` [Pentoxifylline, pentoxifylline], the “Percent Survival at 52 hr” value in assay [7] (50 mg/Kg/day) is 67 + 6%. Moreover, the “protection from LPS induced death” value in assay [7] (50 mg/kg) is 67%. Also, in assay [1] (50 mg/Kg X 2, CF1 male mice), the “Percent of Control (induced edema)” value is 70 + 6% of Control.

Take `O=S(=O)(O)c1cc2c(O)c(c1)Cc1cc(S(=O)(=O)O)cc(c1O)Cc1cc(S(=O)(=O)O)cc(c1O)Cc1cc(S(=O)(=O)O)cc(c1O)Cc1cc(S(=O)(=O)O)cc(c1O)Cc1cc(S(=O)(=O)O)cc(c1O)C2` [Compound 2]: the IC50 was 76.2 µM in assay [4]; 67 µM in assay [8] (60 min); 57 µM in assay [8] (120 min); 7.9 µM in assay [5] (60 min); 240 µM in assay [5] (120 min). Further, the results for the “Percent of Control (induced edema)” value in assay [1] (setting [10]) and in assay [1] (setting [9]) were 47 + 4% of Control and 74+ 5% of Control, respectively. Also, the “Percent Survival at 52 hr” value in assay [2] (2 mg/kg I.P.) is listed as 83%; in assay [2] (4 mg/Kg I.P.), 50%; in assay [2] (8 mg/Kg I.P.) it was 50%; in assay [2] (16 mg/Kg I.P.), 83%. Moreover, the “protection from LPS induced death” value in assay [2] (16 mg/kg) came to 83%.

`N=C(N)c1ccc(OCCCCCOc2ccc(C(=N)N)cc2)cc1` [pentamidine]: in assay [3], the half-maximal inhibitory concentration (IC50) was 1 µM.

With `COc1c2cc(S(=O)(=O)O)cc1Cc1cc(S(=O)(=O)O)cc(c1OC)Cc1cc(S(=O)(=O)O)cc(c1OC)Cc1cc(S(=O)(=O)O)cc(c1OC)Cc1cc(S(=O)(=O)O)cc(c1OC)Cc1cc(S(=O)(=O)O)cc(c1OC)Cc1cc(S(=O)(=O)O)cc(c1OC)Cc1cc(S(=O)(=O)O)cc(c1OC)C2` [Compound 4], the IC50 in assay [4] turned out to be 59.2 µM; in assay [8] (60 min) it was 54 µM; in assay [8] (120 min), 45 µM; in assay [5] (60 min) it was 0.3 µM; in assay [5] (120 min), 270 µM; in assay [6] (60 min), 57 µM. It took 56 µM to reach half-maximal inhibition in assay [6] (120 min) (IC50). For the same compound, the “Percent of Control (induced edema)” value is 56 + 6% of Control in assay [1] (setting [10]) and 48+4% of Control in assay [1] (setting [9]). Also, the “reduction of edema” value in assay [1] is “greater than 40%”. Further, the “Percent Survival at 52 hr” value in assay [2] (4 mg/Kg I.P.) came to 33%; in assay [2] (8 mg/Kg I.P.), 67%; in assay [2] (16 mg/Kg I.P.), 83%. Further, the “protection from LPS induced death” value in assay [2] (16 mg/kg) is 83%.

For `O=S(=O)(O)c1cc2c(O)c(c1)Cc1cc(S(=O)(=O)O)cc(c1O)Cc1cc(S(=O)(=O)O)cc(c1O)Cc1cc(S(=O)(=O)O)cc(c1O)Cc1cc(S(=O)(=O)O)cc(c1O)Cc1cc(S(=O)(=O)O)cc(c1O)Cc1cc(S(=O)(=O)O)cc(c1O)Cc1cc(S(=O)(=O)O)cc(c1O)C2` [Compound 1], the 50% inhibitory concentration (IC50) came to 20.6 µM in assay [4]; 57 µM in assay [8] (60 min); 56 µM in assay [8] (120 min); 360 µM in assay [5] (120 min); 54 µM in assay [6] (60 min); 45 µM in assay [6] (120 min). Also, the “Percent of Control (induced edema)” value is on record as 51 + 4% of Control in assay [1] (setting [10]) and 56+ 5% of Control in assay [1] (setting [9]). Besides, the “reduction of edema” value in assay [1] is recorded as “greater than 40%”. Besides, the “Percent Survival at 52 hr” value in assay [2] (4 mg/Kg I.P.) and in assay [2] (8 mg/Kg I.P.) was 50% throughout. In addition, in assay [2] (16 mg/kg), the “protection from LPS induced death” value was found to be 83%.

With `O=S(=O)(O)c1cc2c(O)c(c1)Cc1cc(S(=O)(=O)O)cc(c1O)Cc1cc(S(=O)(=O)O)cc(c1O)Cc1cc(S(=O)(=O)O)cc(c1O)C2` [Compound 3], the 50% inhibitory concentration (IC50) in assay [4] was 27.7 µM; in assay [8] (60 min), 73 µM; in assay [8] (120 min), 25 µM; in assay [5] (60 min), 10 to 30 µM; in assay [5] (60 min, listed as #3), 28.8 µM; in assay [5] (120 min), 280 µM. Also, the IC50 in assay [6] (60 min) stood at 73 µM; in assay [6] (120 min) it was 25 µM. For the same compound, the “Percent of Control (induced edema)” value in assay [1] (setting [10]) is listed as 58 + 6% of Control; in assay [1] (setting [9]) it was 61 +5% of Control. The “Percent Survival at 52 hr” value in assay [2] (2 mg/kg I.P.) stood at 67%; in assay [2] (4 mg/Kg I.P.), 50%; in assay [2] (8 mg/Kg I.P.), 100%; in assay [2] (16 mg/Kg I.P.) it was 50%. The “protection from LPS induced death” value in assay [2] (8 mg/kg) is on record as 100%.
